Test systems include MALME-3M melanoma; A498 renal; 786-0 renal; SK-OV-3 ovarian; OVCAR-3 ovarian; CCRF-CEM leukemia; SF-295 CNS; LOX IMVI melanoma; RXF 393 renal; KM12 colon.
Assay in all cases: inhibition of tumour cell growth, NCI panel, 48 h

Among the data in PubChem BioAssay (NCI) are GI50 and TGI values, retold here.

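96-well plates; 48 h exposure; 5 concentrations. Endpoints by linear interpolation between flanking doses. Not reached: highest tested concentration assigned. GI50: concentration for 50% inhibition of growth. TGI is the concentration that stops growth completely.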

Regarding `Cc1cc(I)cc(CN(C)CCCN2CCCC2)c1O`, the GI50 in the assay with MALME-3M melanoma was 16.6 µM; in the assay with A498 renal, 14.8 µM; in the assay on 786-0 renal, 14.4 µM; with SK-OV-3 ovarian, 20.5 µM; in the assay on OVCAR-3 ovarian, 23.2 µM; with CCRF-CEM leukemia, 3.46 µM. Also, the GI50 in the assay on SF-295 CNS was 13.7 µM; with LOX IMVI melanoma it was 15 µM; in the assay on RXF 393 renal, 16.3 µM; in the assay on KM12 colon, 20.3 µM. For the same compound, the TGI in the assay on MALME-3M melanoma is 33.1 µM; in the assay on A498 renal it was 33.6 µM; in the assay on 786-0 renal, 30.3 µM; in the assay with SK-OV-3 ovarian it was 61.2 µM; in the assay with OVCAR-3 ovarian, above 88.2 µM; in the assay with CCRF-CEM leukemia, 38.1 µM. The TGI in the assay with SF-295 CNS worked out at 28.4 µM; with LOX IMVI melanoma it was 30.6 µM; in the assay with RXF 393 renal, 41 µM; in the assay on KM12 colon it was 46 µM.
In the case of `COC(=O)C(/C(=N\O)C(=O)Nc1cccc(Cl)c1C)c1cnc2ccccc2n1` (stereo not given), the TGI in the assay on MALME-3M melanoma, with A498 renal, in the assay on 786-0 renal, in the assay with SK-OV-3 ovarian, with OVCAR-3 ovarian and with CCRF-CEM leukemia was above 100 µM in each case. Further, the TGI with SF-295 CNS, in the assay on LOX IMVI melanoma, with RXF 393 renal and with KM12 colon was above 100 µM each time.
With `O=c1oc2ccccc2[n+]([O-])c1-c1ccccc1`, the TGI with MALME-3M melanoma, in the assay on A498 renal, in the assay with 786-0 renal, with SK-OV-3 ovarian, with OVCAR-3 ovarian and in the assay on CCRF-CEM leukemia was above 100 µM in each case. The TGI in the assay with SF-295 CNS, in the assay on LOX IMVI melanoma, in the assay on RXF 393 renal and in the assay on KM12 colon was above 100 µM each time.
For `O=C(O)c1ccccc1/C=N/N=C1c2ccccc2-c2ccccc21`, the TGI is above 100 µM with MALME-3M melanoma; above 100 µM with A498 renal; above 100 µM in the assay on 786-0 renal; above 100 µM in the assay with SK-OV-3 ovarian; 36 µM with OVCAR-3 ovarian; 78.7 µM with CCRF-CEM leukemia. Moreover, the TGI is 61 µM in the assay with SF-295 CNS, above 100 µM in the assay with LOX IMVI melanoma, 75.8 µM in the assay on RXF 393 renal and 58.7 µM with KM12 colon.
Regarding `COc1ccc(OC)c(Cn2cc3c(c2-c2ccccc2)CCc2cnoc2-3)c1`, the GI50 with MALME-3M melanoma was 3.7 µM; with A498 renal, 2.12 µM; in the assay on 786-0 renal, 6.09 µM; with SK-OV-3 ovarian, 7.48 µM; in the assay on OVCAR-3 ovarian, 2.7 µM; with CCRF-CEM leukemia it was 4.48 µM. Further, the GI50 in the assay with SF-295 CNS is 3.19 µM; in the assay with LOX IMVI melanoma, 4.92 µM; in the assay on RXF 393 renal it was 6.12 µM; in the assay with KM12 colon, 3.61 µM. In addition, the TGI was above 100 µM in the assay on MALME-3M melanoma; 9.28 µM with A498 renal; above 100 µM in the assay on 786-0 renal; above 100 µM in the assay with SK-OV-3 ovarian; 7.95 µM in the assay on OVCAR-3 ovarian; above 100 µM with CCRF-CEM leukemia. For the same compound, the TGI in the assay with SF-295 CNS, in the assay on LOX IMVI melanoma, in the assay on RXF 393 renal and with KM12 colon was above 100 µM each time.
For the compound `O=C(N[C@@H](C[Se][Se]C[C@H](NC(=O)c1ccc(Br)cc1F)C(=O)O)C(=O)O)c1ccc(Br)cc1F`, the GI50 in the assay on MALME-3M melanoma, in the assay on A498 renal, in the assay with 786-0 renal, in the assay with SK-OV-3 ovarian, in the assay with OVCAR-3 ovarian and with CCRF-CEM leukemia was above 100 µM throughout. In addition, the GI50 with SF-295 CNS, in the assay on LOX IMVI melanoma, in the assay with RXF 393 renal and in the assay on KM12 colon was above 100 µM each time. The TGI in the assay on MALME-3M melanoma, with A498 renal, with 786-0 renal, in the assay on SK-OV-3 ovarian, in the assay on OVCAR-3 ovarian and in the assay with CCRF-CEM leukemia was above 100 µM in each case. Further, the TGI in the assay with SF-295 CNS, in the assay with LOX IMVI melanoma, in the assay with RXF 393 renal and in the assay on KM12 colon was above 100 µM throughout.
For `Cc1cc(N(CCC#N)CCC#N)ccc1/C=C(\NC(=O)/C=C/c1ccccc1)C(=O)NN`, the TGI in the assay with MALME-3M melanoma was above 100 µM; with A498 renal, above 100 µM; with 786-0 renal it was above 100 µM; with SK-OV-3 ovarian it was above 82.6 µM; in the assay with OVCAR-3 ovarian, above 100 µM; with CCRF-CEM leukemia, above 100 µM. Further, the TGI in the assay on SF-295 CNS is above 95.6 µM; in the assay with LOX IMVI melanoma, above 100 µM; in the assay with RXF 393 renal, above 92.3 µM; in the assay on KM12 colon, above 100 µM.
Regarding `O=S(=O)(CCCl)c1ccc(Cl)cc1`, the GI50 in the assay on MALME-3M melanoma is 2.23 µM; with A498 renal it was 2.26 µM; in the assay with 786-0 renal, 6.41 µM; in the assay with SK-OV-3 ovarian, 11.7 µM; in the assay on OVCAR-3 ovarian it was 2.84 µM; in the assay with CCRF-CEM leukemia, 2.95 µM. Moreover, the GI50 in the assay on SF-295 CNS is 18.2 µM; in the assay with LOX IMVI melanoma, 1.91 µM; with RXF 393 renal it was 2.32 µM; in the assay on KM12 colon, 12.9 µM. The TGI with MALME-3M melanoma stood at 7.2 µM; with A498 renal it was 9.94 µM; in the assay on 786-0 renal it was 21.4 µM; in the assay with SK-OV-3 ovarian, 98.1 µM; in the assay on OVCAR-3 ovarian, 10.6 µM; in the assay with CCRF-CEM leukemia, 20.9 µM. For the same compound, the TGI with SF-295 CNS came to 47.5 µM; with LOX IMVI melanoma it was 5.1 µM; in the assay on RXF 393 renal, 8.96 µM; with KM12 colon it was 31.4 µM.
